# Values quoted from earlier work in patent publication US11353469B2, “Nontoxic compounds for use as taggants in nutritional and pharmaceutical products” (Hall Labs, LLC, priority 2019, dated 2022).
# Like-named read-outs stand apart in the source and are kept apart here.
# Details: for amount recoverable in urine: single dose of 1 g/kg body weight
structure (smiles),measurement,setting,value
"C[S+](C)[O-] [DMSO, dimethylsulfoxide]",time after administration at which DMSO has been detected in urine,applied topically,2 h
same,time after administration at which compound could be detected in urine,orally administered,30 min
same,time of peak excretion in urine,orally administered,≤ 4 h
same,amount recoverable in urine,administered orally,30-68%
same,amount recoverable in urine,applied topically,13%
